# Laboratory results published in patent US8192962B2, “Processes for detecting toxic substances” (Daikin Industries, Ltd., priority 2001, dated 2012).
# Test system: Detoxification protein genes
# Assay: DNA chip mRNA expression in yeast, detoxification protein genes (Table 8)
# Assay type: cell-based, Saccharomyces cerevisiae S288C
# Description: Yeast (Saccharomyces cerevisiae S288C (α SUC2mal mel gap2 CUP1)) were incubated at 25° C. on YPD medium (yeast extract 1%, polypepton 2%, glucose 2%). One of toxic chemical substances was added to the cells at logarithmic growth phase, and the cells were further incubated for two hours. Cells were cultured without any chemical substance in the same condition, and were used as control. Concentrations of the chemical substances were defined to inhibit the growth of the yeast but not lead to death.
# After completion of the incubation, the culture was centrifuged to collect the cells. To the cells, sodium acetate buffer (50 mM sodium acetate, 10 mM EDTA, 1% SDS) was added, and the mixture was shaken at 65° C. for five minutes, followed by returning to room temperature, and obtaining the supernatant, of which the procedures were repeated two times. To the supernatant, ½ amount of a solution of phenol/chloroform was added, and the mixture was centrifuged to give a supernatant, which was added with an equal amount of chloroform, and the mixture was centrifuged to give a supernatant. To the supernatant, an equal amount of isopropanol containing 0.3 M sodium acetate was added, and the mixture was allowed to stand at room temperature for 30 minutes, after which the mixture was centrifuged to give a sediment of the whole RNAs. Seventy % ethanol was added to the sediment, and the mixture was again centrifuged to give a sediment, which was then dried and dissolved in water. mRNA was isolated from the whole RNAs as followings. In view of the fact that a poly A chain is attached to the 3′ terminus of mRNA, a polynucleotide having a poly T structure which was immobilized on the surface of latex beads was used to trap the mRNA, and then the mRNA was washed and eluted with spine column (Oligotex-dT30<Super>mRNA Purification Kit, Takara). Reverse transcription of the mRNA was conducted with a reverse transcriptase (Super Script II Reverse Transcriptase; catalogue No. 18064-014, GibcoBRL) using fluorescence-labeled nucleotides to give cDNAs that were introduced with Cy3-dUTP or Cy5-dUTP during the reverse transcription.
# The labeled cDNAs were dissolved in TE buffer (10mM Tris-HCl/1 mM EDTA, pH8.0), and the solution was dropped on the DNA chip containing the whole genes of yeast (DNA Chip Research Inc. Japan) so that the cDNAs were hybridized on the DNA chip at 65° C. for over 12 hours. The fluoresces intensity of the DNA chip was read with a scanner, and the ratio relative to the fluorescence intensity resulting from the absence of chemical substance was estimated as the following, which is shown in Tables 1 to 9: […]
compound,measurement,setting,value
"[Cl][Pb][Cl] [(4), PbCl2]",The level of expressed mRNA in the presence of chemical substance/The level of expressed mRNA in the absence of chemical substance,yeast gene YBL064C,1.7
same,The level of expressed mRNA in the presence of chemical substance/The level of expressed mRNA in the absence of chemical substance,yeast gene YBR008C,0.7
same,The level of expressed mRNA in the presence of chemical substance/The level of expressed mRNA in the absence of chemical substance,yeast gene YBR145W,0.9
same,The level of expressed mRNA in the presence of chemical substance/The level of expressed mRNA in the absence of chemical substance,yeast gene YBR244W,0.9
same,The level of expressed mRNA in the presence of chemical substance/The level of expressed mRNA in the absence of chemical substance,yeast gene YBR293W,1.8
same,The level of expressed mRNA in the presence of chemical substance/The level of expressed mRNA in the absence of chemical substance,yeast gene YCL035C,1.7
same,The level of expressed mRNA in the presence of chemical substance/The level of expressed mRNA in the absence of chemical substance,yeast gene YCL069W,0.8
same,The level of expressed mRNA in the presence of chemical substance/The level of expressed mRNA in the absence of chemical substance,yeast gene YCR083W,1.8
same,The level of expressed mRNA in the presence of chemical substance/The level of expressed mRNA in the absence of chemical substance,yeast gene YDL100C,0.8
same,The level of expressed mRNA in the presence of chemical substance/The level of expressed mRNA in the absence of chemical substance,yeast gene YDL168W,0.9
same,The level of expressed mRNA in the presence of chemical substance/The level of expressed mRNA in the absence of chemical substance,yeast gene YDR256C,1.3
same,The level of expressed mRNA in the presence of chemical substance/The level of expressed mRNA in the absence of chemical substance,yeast gene YDR453C,3.0
same,The level of expressed mRNA in the presence of chemical substance/The level of expressed mRNA in the absence of chemical substance,yeast gene YDR513W,2.6
same,The level of expressed mRNA in the presence of chemical substance/The level of expressed mRNA in the absence of chemical substance,yeast gene YDR538W,1.2
same,The level of expressed mRNA in the presence of chemical substance/The level of expressed mRNA in the absence of chemical substance,yeast gene YEL027W,1.1
same,The level of expressed mRNA in the presence of chemical substance/The level of expressed mRNA in the absence of chemical substance,yeast gene YEL065W,0.4
same,The level of expressed mRNA in the presence of chemical substance/The level of expressed mRNA in the absence of chemical substance,yeast gene YER185W,7.0
same,The level of expressed mRNA in the presence of chemical substance/The level of expressed mRNA in the absence of chemical substance,yeast gene YFL050C,2.2
same,The level of expressed mRNA in the presence of chemical substance/The level of expressed mRNA in the absence of chemical substance,yeast gene YGL013C,0.7
same,The level of expressed mRNA in the presence of chemical substance/The level of expressed mRNA in the absence of chemical substance,yeast gene YGL254W,0.6
same,The level of expressed mRNA in the presence of chemical substance/The level of expressed mRNA in the absence of chemical substance,yeast gene YGR088W,2.4
same,The level of expressed mRNA in the presence of chemical substance/The level of expressed mRNA in the absence of chemical substance,yeast gene YGR138C,1.2
same,The level of expressed mRNA in the presence of chemical substance/The level of expressed mRNA in the absence of chemical substance,yeast gene YGR197C,1.0
same,The level of expressed mRNA in the presence of chemical substance/The level of expressed mRNA in the absence of chemical substance,yeast gene YGR209C,1.5
same,The level of expressed mRNA in the presence of chemical substance/The level of expressed mRNA in the absence of chemical substance,yeast gene YGR224W,1.2
same,The level of expressed mRNA in the presence of chemical substance/The level of expressed mRNA in the absence of chemical substance,yeast gene YHL040C,0.4
same,The level of expressed mRNA in the presence of chemical substance/The level of expressed mRNA in the absence of chemical substance,yeast gene YHL047C,1.0
same,The level of expressed mRNA in the presence of chemical substance/The level of expressed mRNA in the absence of chemical substance,yeast gene YHR008C,1.8
same,The level of expressed mRNA in the presence of chemical substance/The level of expressed mRNA in the absence of chemical substance,yeast gene YHR048W,1.7
same,The level of expressed mRNA in the presence of chemical substance/The level of expressed mRNA in the absence of chemical substance,yeast gene YHR053C,1.1
same,The level of expressed mRNA in the presence of chemical substance/The level of expressed mRNA in the absence of chemical substance,yeast gene YHR055C,1.2
same,The level of expressed mRNA in the presence of chemical substance/The level of expressed mRNA in the absence of chemical substance,yeast gene YIR002C,0.6
same,The level of expressed mRNA in the presence of chemical substance/The level of expressed mRNA in the absence of chemical substance,yeast gene YIR038C,2.0
same,The level of expressed mRNA in the presence of chemical substance/The level of expressed mRNA in the absence of chemical substance,yeast gene YJL101C,1.2
same,The level of expressed mRNA in the presence of chemical substance/The level of expressed mRNA in the absence of chemical substance,yeast gene YJR104C,1.2
same,The level of expressed mRNA in the presence of chemical substance/The level of expressed mRNA in the absence of chemical substance,yeast gene YKL026C,4.9
same,The level of expressed mRNA in the presence of chemical substance/The level of expressed mRNA in the absence of chemical substance,yeast gene YKL064W,0.8
same,The level of expressed mRNA in the presence of chemical substance/The level of expressed mRNA in the absence of chemical substance,yeast gene YKR066C,0.7
same,The level of expressed mRNA in the presence of chemical substance/The level of expressed mRNA in the absence of chemical substance,yeast gene YKR105C,1.5
same,The level of expressed mRNA in the presence of chemical substance/The level of expressed mRNA in the absence of chemical substance,yeast gene YKR106W,1.4
same,The level of expressed mRNA in the presence of chemical substance/The level of expressed mRNA in the absence of chemical substance,yeast gene YLL028W,0.5
same,The level of expressed mRNA in the presence of chemical substance/The level of expressed mRNA in the absence of chemical substance,yeast gene YLL057C,0.9
same,The level of expressed mRNA in the presence of chemical substance/The level of expressed mRNA in the absence of chemical substance,yeast gene YLL060C,2.6
same,The level of expressed mRNA in the presence of chemical substance/The level of expressed mRNA in the absence of chemical substance,yeast gene YLR043C,1.8
same,The level of expressed mRNA in the presence of chemical substance/The level of expressed mRNA in the absence of chemical substance,yeast gene YLR046C,0.8
same,The level of expressed mRNA in the presence of chemical substance/The level of expressed mRNA in the absence of chemical substance,yeast gene YML028W,1.3
same,The level of expressed mRNA in the presence of chemical substance/The level of expressed mRNA in the absence of chemical substance,yeast gene YML116W,1.4
same,The level of expressed mRNA in the presence of chemical substance/The level of expressed mRNA in the absence of chemical substance,yeast gene YMR015C,0.9
same,The level of expressed mRNA in the presence of chemical substance/The level of expressed mRNA in the absence of chemical substance,yeast gene YMR038C,0.8
same,The level of expressed mRNA in the presence of chemical substance/The level of expressed mRNA in the absence of chemical substance,yeast gene YNL239W,1.2
same,The level of expressed mRNA in the presence of chemical substance/The level of expressed mRNA in the absence of chemical substance,yeast gene YNL241C,1.0
same,The level of expressed mRNA in the presence of chemical substance/The level of expressed mRNA in the absence of chemical substance,yeast gene YNL259C,1.2
same,The level of expressed mRNA in the presence of chemical substance/The level of expressed mRNA in the absence of chemical substance,yeast gene YOL158C,0.9
same,The level of expressed mRNA in the presence of chemical substance/The level of expressed mRNA in the absence of chemical substance,yeast gene YOR031W,3.4
same,The level of expressed mRNA in the presence of chemical substance/The level of expressed mRNA in the absence of chemical substance,yeast gene YOR153W,1.1
same,The level of expressed mRNA in the presence of chemical substance/The level of expressed mRNA in the absence of chemical substance,yeast gene YOR247W,1.4
same,The level of expressed mRNA in the presence of chemical substance/The level of expressed mRNA in the absence of chemical substance,yeast gene YOR251C,1.8
same,The level of expressed mRNA in the presence of chemical substance/The level of expressed mRNA in the absence of chemical substance,yeast gene YOR273C,1.0
same,The level of expressed mRNA in the presence of chemical substance/The level of expressed mRNA in the absence of chemical substance,yeast gene YPL163C,0.9
same,The level of expressed mRNA in the presence of chemical substance/The level of expressed mRNA in the absence of chemical substance,yeast gene YPR200C,5.0
